Experimental data reported in patent US20070248629A1, “PHARMACEUTICAL FORMULATIONS FOR IONTOPHORETIC DRUG DELIVERY” (priority 2006, published 2007).
Converted amounts (≈) assume the structure as drawn.

Tests used:
[1] = Soluble acyclovir in acyclovir sodium gels by centrifugation and HPLC; details: for soluble species contributing to soluble acyclovir: 88 mole % sodium hydroxide, based on base charge / calculated by difference
Text: The presence or absence of a pellet was noted and an aliquot of the supernatant was removed for dilution and analysis by HPLC.
(§1) Essentially the same values are obtained from the propylene glycol/water formulations. […] The observed pH of the 88% neutralized solutions is weakly affected by the cosolvent to water ratio.

physchem [2] = details: pH 11
Text: as §1

physchem [3] = experiment: physchem
[4] = pH 7; cited from earlier work
[5] = Solubility of acyclovir and sodium acyclovir in water and cosolvent mixtures; details: propylene glycol/water solution, aqueous with cosolvent or surfactant or cyclodextrin

SMILES	soluble species contributing to soluble acyclovir ([1]; glycerin solutions, listed as neutral acyclovir)	soluble acyclovir (total) ([1]; partial neutralization (88 mole % sodium hydroxide), glycerin solutions)	pKa (physchem [2])	solubility (physchem [3]; pH 7, aqueous with cosolvent or surfactant or cyclodextrin)	solubility in water [4]	solubility [5]	soluble species contributing to soluble acyclovir ([1]; glycerin solutions)	solubility in gels with complete neutralization ([1]; 105 and 116 mole % sodium hydroxide)	solubility (physchem [3]; water)
Nc1nc2c(ncn2COCCO)c(=O)[nH]1 [acyclovir]	0.3%	5.3%	9.8	3000 µg/mL (≈ 13.3 mM)	1300 µg/mL (≈ 5.77 mM)	3000 µg/mL (≈ 13.3 mM)			
Nc1nc2c(ncn2COCCO)c(=O)[nH]1 [sodium acyclovir]							5.0%	greater than 5.7 weight percent	> 100000 µg/mL
